The source of these data is patent US20260138961A1, “MODULATORS OF MITOCHONDRIAL DNA REPLICATION” (Pretzel Therapeutics, Inc., priority 2022, published 2026).

The term AC50 denotes the concentration at which the activity in the assay is half-maximal.

This assay addresses T1, POLγ W748S + E1143G (Homo sapiens, UniProt P54098, E1143G/W748S).
T1 sequence (P54098 1-1239 W748S/E1143G): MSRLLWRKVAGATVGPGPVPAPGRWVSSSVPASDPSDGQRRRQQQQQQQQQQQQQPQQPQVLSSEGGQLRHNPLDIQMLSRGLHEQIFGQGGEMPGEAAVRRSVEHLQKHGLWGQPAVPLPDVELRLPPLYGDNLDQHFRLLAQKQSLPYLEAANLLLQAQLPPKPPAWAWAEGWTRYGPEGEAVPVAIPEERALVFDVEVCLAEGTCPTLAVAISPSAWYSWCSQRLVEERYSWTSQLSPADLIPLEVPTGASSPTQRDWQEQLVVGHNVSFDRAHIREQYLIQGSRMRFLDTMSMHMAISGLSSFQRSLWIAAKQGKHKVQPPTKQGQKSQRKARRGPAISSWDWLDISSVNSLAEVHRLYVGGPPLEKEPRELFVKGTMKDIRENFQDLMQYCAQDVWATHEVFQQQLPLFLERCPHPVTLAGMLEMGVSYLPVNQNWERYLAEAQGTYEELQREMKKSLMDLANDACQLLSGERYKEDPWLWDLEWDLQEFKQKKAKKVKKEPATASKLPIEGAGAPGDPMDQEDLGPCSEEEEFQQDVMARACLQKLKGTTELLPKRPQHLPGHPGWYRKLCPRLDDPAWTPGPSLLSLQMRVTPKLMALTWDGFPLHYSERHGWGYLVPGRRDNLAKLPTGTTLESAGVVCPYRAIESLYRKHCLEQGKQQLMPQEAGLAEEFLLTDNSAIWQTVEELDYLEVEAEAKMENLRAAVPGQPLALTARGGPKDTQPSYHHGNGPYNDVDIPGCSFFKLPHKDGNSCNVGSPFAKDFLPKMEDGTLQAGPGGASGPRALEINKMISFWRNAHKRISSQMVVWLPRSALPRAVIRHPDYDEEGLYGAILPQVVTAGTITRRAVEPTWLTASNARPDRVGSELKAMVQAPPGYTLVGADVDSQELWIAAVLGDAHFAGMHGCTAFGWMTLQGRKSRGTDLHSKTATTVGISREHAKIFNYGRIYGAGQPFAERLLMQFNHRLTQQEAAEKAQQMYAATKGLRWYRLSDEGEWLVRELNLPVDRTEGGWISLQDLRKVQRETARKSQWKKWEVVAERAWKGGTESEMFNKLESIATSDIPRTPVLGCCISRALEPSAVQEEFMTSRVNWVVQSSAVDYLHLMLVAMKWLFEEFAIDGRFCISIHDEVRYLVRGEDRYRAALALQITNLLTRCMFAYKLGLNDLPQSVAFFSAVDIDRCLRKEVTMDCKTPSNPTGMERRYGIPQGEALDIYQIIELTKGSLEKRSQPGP
T1 sequence (Q9UHN1 1-485 partner): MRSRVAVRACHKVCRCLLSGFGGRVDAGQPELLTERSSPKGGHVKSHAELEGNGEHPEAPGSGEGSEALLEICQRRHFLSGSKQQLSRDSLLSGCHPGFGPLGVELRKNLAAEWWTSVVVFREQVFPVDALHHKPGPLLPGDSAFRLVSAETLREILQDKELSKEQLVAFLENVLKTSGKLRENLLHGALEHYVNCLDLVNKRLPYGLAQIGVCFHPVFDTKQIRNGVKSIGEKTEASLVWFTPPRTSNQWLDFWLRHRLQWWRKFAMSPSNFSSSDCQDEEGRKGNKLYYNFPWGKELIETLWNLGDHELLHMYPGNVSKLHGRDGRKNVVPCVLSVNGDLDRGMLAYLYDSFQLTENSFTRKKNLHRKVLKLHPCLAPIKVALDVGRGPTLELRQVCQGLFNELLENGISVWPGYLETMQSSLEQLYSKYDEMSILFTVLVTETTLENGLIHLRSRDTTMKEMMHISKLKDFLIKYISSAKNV
Description: DNA polymerization assay, W748S + E1143G mutant. The format is biochemical. The following applies: stimulation of polymerase activity, primed M13mp18 ssDNA, 37° C. 2 hours. The protocol:
DNA Polymerization Assay to Monitor Effects on Human Wildtype POLγ and Four Disease-Causing Mutant Variants of Human POLγ.
The ability of small molecules to stimulate the polymerase activity of POLγ was analyzed in a quantitative fluorescence SYBR Green I assay with fluorescence intensity (FI) readout.
In the presence of dNTPs, wild type human POLγ and mutant derivatives thereof were incubated with single-stranded, circular M13mp18 ssDNA hybridized to a short DNA oligonucleotide that functions as a primer for initiation of DNA synthesis. POLγ and mutant derivatives thereof will extend the primer and use the M13mp18 molecule as a template to synthesize long stretches of double-stranded DNA. SYBR Green I, which is a double-stranded DNA-binding dye, was used to quantify formation of double-stranded DNA in the reaction. When bound to double-stranded DNA, SYBR Green I fluorescence increases by up to 100-fold.
The assay was performed in the 384-well plate format. Upon addition of compounds, changes in double-stranded DNA synthesis activity can be monitored by following effects on fluorescent intensity.
The reactions also contained the accessory POLγB subunit, and the human mitochondrial single-stranded DNA binding protein (mtSSB).
The DNA template mixture used in the assay contained 0.5 nM primed M13 mp18 ssDNA, 400 nM mtSSB, 0.1 mM Tris-HCl (pH 8.0), 0.1 mM dNTP, 10 mM MgCl2, 0.1 mg/mL BSA, 1 mM TCEP solution, and 0.02% Triton X-100. The DNA template mixture for the wild type protein contained either 100 μM dNTP, 1 μM dNTP, or 0.1 μM dNTP, designated in Table 2 as 100 μM, 1 μM, and 0.1 μM, respectfully.
Microplates with compounds (0.1 μL in each well) to be tested in the assay were prepared from 10 mM compound stocks in 100% DMSO, and equal amounts of DMSO without any compound were added to positive and negative control wells.
The protein mixture was dispensed (5 μL into each well) into compound plates and incubated at 37° C. for 15 minutes. After incubation, 5 μL of the DNA template mixture was dispensed into each well. The plates were then incubated at 37° C. for 2 hours.
During incubation, a combined stop buffer and detection reagent solution was prepared. The buffer contained 25 mM EDTA (pH 8.0), 0.02% Triton X-100, and SYBR Green I [Invitrogen] diluted 10,000× (for fluorescent readout). EDTA will stop the enzymatic reaction by chelating magnesium ions.
On to `Cc1cc(S(=O)(=O)Nc2cc(F)cc(C(=O)N3CCC[C@H]3C)c2)c(C)cc1Cl` [Example 13, (R)-4-chloro-N-(3-fluoro-5-(2-methylpyrrolidine-1-carbonyl)phenyl)-2,5-dimethylbenzenesulfonamide], for which the AC50 turned out to be 4 µM.
In the case of `Cc1cnc(-c2ccc(C)c(NS(=O)(=O)c3cc(C)c(Cl)cc3C)c2)s1` [Example 98, 4-chloro-2,5-dimethyl-N-(2-methyl-5-(5-methylthiazol-2-yl)phenyl)benzenesulfonamide] it was above 100 µM; in that of `Cc1cc(S(=O)(=O)Nc2cccc(-c3ncc(C#N)s3)c2)c(C)cc1Cl` [Example 96, 4-chloro-N-(3-(5-cyanothiazol-2-yl)phenyl)-2,5-dimethylbenzenesulfonamide], 2 µM; in that of `Cc1cc(S(=O)(=O)Nc2cccc(C(=O)N3CCC[C@H]3C)c2)c(C)cc1Cl` [Example 10, (R)-4-chloro-2,5-dimethyl-N-(3-(2-methylpyrrolidine-1-carbonyl)phenyl)benzenesulfonamide], 2 µM.
In the case of `Cc1cnc(-c2cc(NS(=O)(=O)c3cc(C)c(Cl)cc3C)ccc2C)s1` [Example 103, 4-chloro-2,5-dimethyl-N-(4-methyl-3-(5-methylthiazol-2-yl)phenyl)benzenesulfonamide], the AC50 is above 100 µM.
To `Cc1cc(S(=O)(=O)Nc2cccc(C(=O)NCc3ccccc3)c2)c(C)cc1Cl` [Example 11, N-benzyl-3-((4-chloro-2,5-dimethylphenyl)sulfonamido)benzamide] belongs 19 µM.
